The source of these data is patent US20210161937A1, “ACTIVATION OF MITOCHONDRIAL UNCOUPLING AS A THERAPEUTIC INTERVENTION” (The Trustees of Columbia University in the City of New York, priority 2018, published 2021).

“Also recorded” adds a separate entry of the source.

In experiment [1] the test system is Drosophila. In words: Lifespan analysis of flies fed drug-supplemented adult medium. As to conditions: for median lifespan of control flies versus dose / median lifespan of per^01 null mutants versus dose: varying concentrations fed during adulthood; for lifespan of per^01 mutants / median lifespan of per^01 null mutants versus dose: per^01 null mutants; for lifespan of per^01 mutants: dietary DNP or BHT; for lifespan: wild-type (control) male flies, dietary 2,4 DNP 0.01-0.1 mM or BHT 0.1-1 mM vs ethanol vehicle. It counts as in vivo. How it is done:
Drosophila were reared from embryos in low-density bottles with standard medium containing 3.8% glucose, 1.9% sucrose, 3% yeast nutritional flake (Lab Scientific), 6.5% cornmeal, 0.8% agar, supplemented with 1.5% methylparaben mix (10% methylparaben in ethanol) and 1% propionic acid. Adult flies that eclosed within a 24 hour period were collected and transferred to “adult medium” containing 3.8% glucose, 1.9% sucrose, 8% cornmeal, 1% agar, and either 0.01%, 0.5%, 3%, 5%, or 10% yeast extract (Difco) supplemented with 1.5% methylparaben mix and 1% propionic acid for lifespan and biochemical analysis. All percentages given in wt/v except methylparaben mix, propionic acid given in v/v.
All drugs were supplemented into cooled (65° C.) liquid adult medium (containing 3% yeast extract) following preparation to the following final concentration(s): RU486 100μg/mL. RU486 (Cayman Chemical) dissolved in ethanol was supplemented into medium after eclosion at a final concentration of 100 μg/mL (with the exception of DaGS>UAS-Ucp4c and controls, 5 μg/mL) vehicle controls were supplemented with same volume of ethanol alone. Developmental induction was achieved by adding RU486 at concentration of 5 μg/mL, or ethanol vehicle, followed by adults being aged on standard food containing no RU486. For uncoupler feeding 2,4 DNP or BHT purchased from Sigma was dissolved in ethanol fresh at the time of making food and added in to the media, at the indicated concentrations. 2,4 DNP (0.01-0.1 mM) and BHT (0.1-1 mM).
(§1) Newly eclosed flies (˜24 hr) were collected and allowed to mate for 48 hr. Female and male flies were separated and maintained at a density of 30-35 flies per vial in a humidified, temperature-controlled (25° C.) incubator with a 12-hour light-dark cycle. For starvation analysis, flies were aged for 7 days in vials containing indicated diets and then transferred to 1% agar in a humidified, temperature-controlled incubator with 12-hour light-dark cycle at 25° C. Death was scored every 1-2 days, with live flies transferred to fresh vials every 2-3 days. Statistical significance was determined by log-rank analysis.

The next experiment relates to ISC tumors. In words: Notch-RNAi induced ISC tumor formation (Esg^ts>UAS-Notch-RNAi flies). The class given is in vivo, Drosophila. How it is done:
as §1
Ese^ts>UAS-Notch-RNAi flies were reared at 18° C. Upon eclosion flies were collected, sexed and placed on media containing 0.05 mM 2,4 DNP, or ethanol vehicle food at 30° C. Time-points of day 0, 8, and 16 days were taken. Intestines were dissected, fixed, and stained as above pHH3 protocol, with anti-GFP (cell signaling) and 1.5 μg/mL Hoechst stain. Quantification of GFP area was performed by using the ImageJ count particle tool in the GFP channel normalized to total area of the posterior midgut that was imaged. 7-13 guts were used for each condition and timepoint.

Experiment [2] deals with posterior midgut, ISCs/EBs. In words: MitoSOX intestinal staining and esg+ cell quantification in posterior midguts of Esg-GAL4>GFP flies. The class given is in vivo, Drosophila. As to conditions: Esg-GAL4>GFP flies fed DNP vs vehicle. The method, then:
Flies were anesthetized on ice and intestines were dissected in cold Schneider's Medium (Thermo Fisher Scientific). Intestines were then incubated in 75 nM of TMRE (Thermo Fisher Scientific) in Schneider's Medium, for 10 min at room temperature. Samples were rinsed three times for 30 sec with a solution consisting of 20 nM of TMRE Schneider's Medium. For MitoSOX staining dissected intestines were immersed in 50 μM MitoSOX Red (Invitrogen) in Schneider's Medium for 5 min at room temp, then washed three times for 30 sec in Schneider's Medium. MitoSOX or TMRE samples were quickly mounted in Schneider's Medium containing 1.5 μg/mL Hoechst stain. Intestines were imaged within 20 min on a Ziess LSM800 confocal microscope. Z-stacks spanning the entire posterior midgut were taken. Quantification of TMRE or MitoSOX was performed using ImageJ in which mean fluorescent intensity values were quantified. TMRE foci were quantified using the ImageJ (Schneider et al. 2012) local maxima tool, using identical thresholding for all images. Foci number were normalized to the number of nuclei in the measured field of view. Quantification of MitoSOX output of ISCs/EBs was determined by mean intensity from individual Z-planes with regions of interest defined by esgGFP expression, cell size, and basal location within the intestinal epithelium. Mean intensity of MitoSOX fluorescence levels in all ISCs/EBs were averaged for each individual intestine. A minimum of 9 midguts were used for each genotype or drug treatment.

Experiment [3] concerns Drosophila. The experiment can be described thus: CO2 respiration assay after mitochondrial drug feeding. It counts as in vivo. As to conditions: 24 hr feeding; 500 μM Oligomycin, 1 mM rotenone, 5 mM 2,4 DNP, 0.5% stearate. The method, then:
Measurement of CO2 production was performed similarly to Yatsenko et al. 2014. Briefly, 10 flies were placed in a sealed pipette tip-capillary respirometer (without anesthesia) containing a small amount of soda-lime. Respirometers were placed capillary side down in dH20 containing 0.1% blue food dye in a sealed TLC chamber placed in a 25° C. incubator. Empty sealed respirometers (containing no flies) were used to subtract blue dye background migration from experimental (fly-containing) samples. Flies were tested for 2 hr between at circadian timepoints, and CO2 production rate was indirectly determined by the amount of liquid movement up the capillary per hour after background subtraction. At least 6 groups of 10 flies were used per genotype for quantification for each condition. For mitochondrial drug feeding experiments, flies were placed on food containing the following compounds for 24 hr: 500 μM Oligomycin, 1 mM rotenone, 5 mM 2,4 DNP, 0.5% stearate, or ethanol vehicle controls.

As for `Cc1cc(C(C)(C)C)c(O)c(C(C)(C)C)c1` [BHT, butylated hydroxytoluene], in the experiment on Drosophila [1], the “median lifespan of control flies versus dose” value is recorded as “increased their median lifespan in a dose-dependent manner”, the “lifespan of per^01 mutants” value is given as “did not extend the lifespan of per^01 mutants”, the “median lifespan of per^01 null mutants versus dose” value is “no median lifespan increase was observed” and the lifespan result is recorded as “extended the lifespan of wild-type male flies in a dose-dependent manner; also recorded: increased lifespan compared to vehicle-fed controls”.

As to `O=[N+]([O-])c1ccc(O)c([N+](=O)[O-])c1` [DNP, 2,4-dinitrophenol], the “progression of ISC tumors (GFP+ area in the midgut)” value in the experiment with ISC tumors (0.05 mM 2,4 DNP in media vs ethanol vehicle, 30° C., day 0, 8, 16) is reported as “slowed the progression of ISC tumors; also recorded: delayed tumor formation”. Further, in the experiment on ISC tumors (dietary 2,4 DNP vs vehicle), the “lifespan of flies with Notch-induced tumor formation” value is recorded as “extended the shortened lifespan of these animals; also recorded: extended lifespans”. Besides, in experiment [2], the “age-related esg+ cell overproliferation (esg+ cell count)” value is recorded as “reduced”, the “mitochondrial ROS output of ISC/EB populations (MitoSOX staining in GFP-marked ISCs/EBs)” value is on record as “reduced” and the “mitochondrial ROS output of the entire posterior midgut (MitoSOX staining)” value is given as “reduced”. Also, in experiment [2] (listed as 2,4 DNP), the “age-related esg+ cell overproliferation (esg+ cell count)” value is listed as “fewer esg+cells”, the “mitochondrial ROS output of ISC/EB populations (MitoSOX staining in GFP-marked ISCs/EBs)” value was “decreased MitoSOX staining specifically in ISCs/EBs” and the “mitochondrial ROS output of the entire posterior midgut (MitoSOX staining)” value was “decreased Mitosox staining of the entire posterior midgut”. Besides, in the experiment with Drosophila [3], the “respiration (relative CO2 production) of control flies” value is on record as “increased the respiration of control flies to levels similar to those of per^01 mutants” and the “respiration (relative CO2 production) of per^01 mutants” value is reported as “did not increase the respiration of per^01 mutants”. Also, the “median lifespan of control flies versus dose” value with Drosophila [1] (listed as 2,4 DNP) is “increased their median lifespan in a dose-dependent manner”. For the same molecule, in the experiment with Drosophila [1], the “lifespan of per^01 mutants” value was “did not extend the lifespan of per^01 mutants”, the “median lifespan of per^01 null mutants versus dose” value was “no median lifespan increase was observed” and the lifespan result is given as “extended the lifespan of wild-type male flies in a dose-dependent manner”.

Consider `CC#C[C@]1(O)CC[C@H]2[C@@H]3CCC4=CC(=O)CCC4=C3[C@@H](c3ccc(N(C)C)cc3)C[C@@]21C` [RU486, mifepristone], for which the “lifespan on RU486 administration (induces constitutive overexpression of UCPs)” value in the experiment with Drosophila [1] (RU486-inducible UCP overexpression (DaGS>UAS-Ucp4C flies)) is “increased lifespan”.

`CC[C@H]1/C=C/C=C/C[C@@H](C)[C@H](O)[C@@](C)(O)C(=O)[C@@H](C)[C@H](O)[C@@H](C)C(=O)[C@@H](C)[C@H](O)[C@@H](C)/C=C/C(=O)O[C@@H]2[C@H](C)[C@H](CC1)O[C@]1(CC[C@H](C)[C@H](C[C@@H](C)O)O1)[C@H]2C` [oligomycin]: in the experiment on Drosophila [3], the “respiration (relative CO2 production) of control flies” value was “inhibited the CO2 output of both control and per^01 animals to a similar degree”; the “respiration (relative CO2 production) of per^01 mutants” value is “inhibited the CO2 output of both control and per^01 animals to a similar degree”.

Consider `C=C(C)[C@H]1Cc2c(ccc3c2O[C@@H]2COc4cc(OC)c(OC)cc4[C@@H]2C3=O)O1` [rotenone], for which, in the experiment on Drosophila [3], the “respiration (relative CO2 production) of control flies” value was “inhibited the CO2 output of both control and per^01 animals to a similar degree”; the “respiration (relative CO2 production) of per^01 mutants” value was “inhibited the CO2 output of both control and per^01 animals to a similar degree”.

On to `CCCCCCCCCCCCCCCCCC(=O)O` [stearic acid], for which, in the experiment with Drosophila [3], the “respiration (relative CO2 production) of control flies” value is “increased the respiration of control flies to levels similar to those of per^01 mutants” and the “respiration (relative CO2 production) of per^01 mutants” value is listed as “did not increase the respiration of per^01 mutants”.
